Results on twelve compounds are retold here after article PMC7673371, “Real-Time Parallel Artificial Membrane Permeability Assay Based on Supramolecular Fluorescent Artificial Receptors” (Frontiers in Chemistry, 2020).

Series [1] can be described thus: RT-PAMPA with MDAP∙CB8 fluorescent receptor and Avanti lipid. Here is the method: Analyte solutions were prepared at 1 mmol/L in Millipore water or cosolvents as indicated. The MDAP∙CB8 reporter pair solution contained 5 μmol/L of MDAP and 6 μmol/L of CB8 that were dissolved in Millipore water. Two lipid solutions were used, including the commercial Avanti PAMPA lipid blend I and the self-prepared 2% DOPC in dodecane. To proceed with the assay, 5 μL of the lipid solution was pipetted to the microporous filter and allowed to impregnate evenly; 300 μL of the analyte solution was transferred to the lower donor well, and 100 μL of the reporter pair solution was transferred to the upper acceptor well. The acceptor plate was combined with the donor plate after the solutions had been loaded to define the start point of the assay. Fluorescence readings were taken on a Jasco FP-8500 fluorimeter equipped with a microplate reader with an excitation wavelength at 418 nm and monitored at an emission wavelength of 449 nm.
RT-PAMPA and fluorescence titration experiments were conducted on a Jasco FP-8500 fluorimeter with an attached microplate reader. For RT-PAMPA, the analytes were prepared at 1 mmol/l, while the FARs, including MDAP•CB8 and berberine•cucurbit[7]uril (BE•CB7), were prepared at 5 μmol/l.
In the first step, 5 μl of the lipid solution (Avanti PAMPA Blend I or 2% DOPC) was loaded on the microporous bottom of the acceptor well and allowed to disperse evenly. Subsequently, 100 μl of the FAR solution was loaded in the acceptor well, and 300 μl of the analyte solution was loaded into the donor well. Immediately after the solutions were loaded, the two plates were combined with the acceptor plate on top and the donor plate at the bottom. Fluorescence intensity was recorded at 449 nm with an excitation wavelength of 418 nm for the MDAP•CB8 experiments and recorded at 500 nm with an excitation wavelength of 342 nm for the BE•CB7 experiments. For the titration experiments, 2.5 ml of the 1 μmol/l MDAP•CB8 solution was placed into a 1-cm length quartz cuvette, followed by gradual addition of the indole solution. The solution was excited at 418 nm and the fluorescence spectra were recorded upon each addition of the indole solution. The fluoresc ence decrease at 449 nm was fitted with a 1:l binding model in order to obtain the binding constants of the MDAP•CB8•indole […]
2 Blank control experiments […]
5 Calculation of permeability
The effective permeability (Pe) of an analyte was calculated with the below equation (Wohnsland and […]
logP = log {−C × ln (1 − [analyte]acceptor )}
Based on the principle of the RT-PAMPA, the concentration of analyte in the acceptor well ([analyte]acceptor) and the concentration at equilibrium ([analyte]equilibrium) were obtained with the below equations, with the knowledge of the fluorescence intensity of the acceptor well and the binding constant of the ternary MDAP•CB8•analyte complex. It should be noted that the retention of analyte in the lipid layer was not taken into account.
[analyte]acceptor = [analyte]complex + [analyte]free
= IA − IG × [G ] + IA − IG […]
[analyte] = A G × [G ] + IGA − IG […]
IA: fluorescence intensity of the acceptor well at the chosen time point; IG: initial fluorescence intensity of the acceptor well;
IGA: fluorescence intensity of the ternary complex;
[G0]: initial concentration of FAR in the acceptor well;
[A0]: initial concentration of analyte in the donor well;
VA: volume of the solution in the acceptor well;
VD: volume of the solution in the donor well;
Ka: binding constant of the ternary MDAP•CB8•analyte complex.

Series [2] in a line: RT-PAMPA with MDAP∙CB8 fluorescent receptor and 2% DOPC lipid. The conditions noted are these: RT-PAMPA conditions, 2% DOPC in dodecane. The class given is in vitro ADME. Here is the method: with an attached microplate reader.
Subsequently, 100 μl of the
Fluorescence intensity was recorded at 449 nm
For the titration experiments,
gradual addition of the indole solution.
were recorded upon each addition of the indole solution. The fluoresc ence decrease at 449 nm was
2 Blank control experiments
(In PAMPA a lipid-coated filter parts donor from acceptor wells.)

Series [3] is described as follows: RT-PAMPA with BE•CB7 as FAR, Avanti PAMPA lipid layer. The class given is in vitro ADME. The conditions noted are these: berberine∙cucurbit[7]uril reporter pair, analyte in water.
For series [4] the following is noted: not told; cited from earlier work.
Setting [5] is: 1 mmol/L analyte in donor well, MDAP∙CB8 in acceptor well, Avanti lipid, compared with absence of analyte.
[6] abbreviates: RT-PAMPA, fast = sharp fluorescence drop in initial several minutes, slow = response on time scale of several hours.

“Also recorded” adds a separate entry of the source.

For the compound `CCC(=O)Nc1ccc(Cl)c(Cl)c1` [propanil], in series [1] (setting [5]), the “fluorescence response indicative of analyte permeation through the lipid layer” value is on record as “significant fluorescence responses”. The “permeation characteristics (fast or slow) from the permeation curves” value (from here on “permeation characteristics”) in series [1] (setting [6]) is reported as “Fast permeation”.
Turning to `O=c1ccc2ccc(O)cc2o1` [umbelliferone], in series [1] (setting [5]), the “fluorescence response indicative of analyte permeation through the lipid layer” value was “significant fluorescence responses; also recorded: appreciable permeability”. Further, in series [1] (setting [6]), the “permeation characteristics” value was “slowly permeating”. The “permeation through the 2% DOPC lipid” value in series [2] was “did not permeate to a significant extent”.
Turning to `OC12CC3CC(CC(C3)C1)C2` [1-adamantanol], in series [3], the “fluorescence response indicative of effective permeation” value is listed as “strong fluorescence response”.
Take `c1ccc2[nH]c(-c3cscn3)nc2c1` [thiabendazole]: the “influence of organic cosolvent in donor well on permeation curves” value in series [1] (0.1 mmol/L in 2 and 20% ethanol, initial hour) is “overlapped”. Further, the “fluorescence response indicative of analyte permeation through the lipid layer” value in series [1] (setting [5]) is “significant fluorescence responses”. Moreover, the “permeation characteristics” value in series [1] (setting [6]) is recorded as “Fast permeation”.
As to `CN(C)CCc1c[nH]c2ccc(C[C@H]3COC(=O)N3)cc12` [zolmitriptan], in series [1] (setting [5]), the “fluorescence response indicative of analyte permeation through the lipid layer” value is listed as “no significant fluorescence response”.
As for `Cc1c(OCC(F)(F)F)ccnc1C[S+]([O-])c1nc2ccccc2[nH]1` (stereo not shown) [lansoprazole], the “fluorescence response indicative of analyte permeation through the lipid layer” value in series [1] (setting [5]) was “significant fluorescence responses”. For the same compound, the “permeation characteristics” value in series [1] (setting [6]) is “slowly permeating”.
The matching figures for `O=c1ccc2ccccc2o1` [coumarin]: “significant fluorescence responses” and “Fast permeation”.
Turning to `c1ccc2[nH]ccc2c1` [indole], the “fluorescence response indicative of analyte permeation through the lipid layer” value in series [1] (setting [5]) was “significant fluorescence responses”. In series [1] (setting [6]), the “permeation characteristics” value is on record as “Fast permeation”. The “log Pe” value in series [1] (indole 0.010 mmol/l, time 0.15 h) is on record as “–4.55”; in series [1] (indole 0.010 mmol/l, time 0.30 h), “–4.67”; in series [1] (indole 0.010 mmol/l, time 0.45 h), “–4.59”; in series [1] (indole 0.010 mmol/l, time 0.58 h) it was “–4.52”; in series [1] (indole 0.010 mmol/l, time 0.73 h) it was “–4.53”; in series [1] (indole 0.010 mmol/l, time 0.87 h), “–4.52”. The “log Pe” value was “–4.55” in series [1] (indole 0.010 mmol/l, time 1.43 h); “–4.59” in series [1] (indole 0.010 mmol/l, time 1.85 h); “–4.70” in series [1] (indole 0.1 mmol/l, time 0.15 h); “–4.72” in series [1] (indole 0.1 mmol/l, time 0.30 h); “–4.74” in series [1] (indole 0.1 mmol/l, time 0.45 h); “–4.73” in series [1] (indole 0.1 mmol/l, time 0.58 h). Also, the “log Pe” value is given as “–4.74” in series [1] (indole 0.1 mmol/l, time 0.73 h); “–4.72” in series [1] (indole 0.1 mmol/l, time 0.87 h); “–4.81” in series [1] (indole 0.1 mmol/l, time 1.43 h); “–4.87” in series [1] (indole 0.1 mmol/l, time 1.85 h); “–5.15” in series [1] (indole 1.0 mmol/l, time 0.15 h); “–5.09” in series [1] (indole 1.0 mmol/l, time 0.30 h). Also, the “log Pe” value in series [1] (indole 1.0 mmol/l, time 0.45 h) is given as “–5.17”; in series [1] (indole 1.0 mmol/l, time 0.58 h), “–5.21”; in series [1] (indole 1.0 mmol/l, time 0.73 h), “–5.28”; in series [1] (indole 1.0 mmol/l, time 0.87 h), “–5.32”; in series [1] (indole 1.0 mmol/l, time 1.43 h), “–5.49”; in series [1] (indole 1.0 mmol/l, time 1.85 h), “–5.59”.
As to `CN(C)CCC=C1c2ccccc2COc2ccccc21` [doxepin], the “fluorescence response indicative of analyte permeation through the lipid layer” value in series [1] (setting [5]) is reported as “no significant fluorescence response”.
Same read-out and setting: the same measure for `N[C@@H](Cc1ccccc1)C(=O)O` [L-Phenylalanine]: “no significant fluorescence response”; for `NCCc1c[nH]c2ccc(O)cc12` [serotonin]: “no significant fluorescence response”.
Regarding `NC(=O)[C@@H](N)Cc1c[nH]c2ccccc12` [L-tryptophanamide], in series [1] (PAMPA), the “fluorescence response indicative of analyte permeation through the lipid layer” value is “significant fluorescence responses” and the “permeation characteristics” value was “slowly permeating”. Moreover, the “permeability coefficient (logPe)” value in series [4] is −5.56.
